Format in all cases: in vitro ADME
The target in one data set is T1, CYP19A1h (Homo sapiens, UniProt P11511).
T1 sequence (P11511 1-503): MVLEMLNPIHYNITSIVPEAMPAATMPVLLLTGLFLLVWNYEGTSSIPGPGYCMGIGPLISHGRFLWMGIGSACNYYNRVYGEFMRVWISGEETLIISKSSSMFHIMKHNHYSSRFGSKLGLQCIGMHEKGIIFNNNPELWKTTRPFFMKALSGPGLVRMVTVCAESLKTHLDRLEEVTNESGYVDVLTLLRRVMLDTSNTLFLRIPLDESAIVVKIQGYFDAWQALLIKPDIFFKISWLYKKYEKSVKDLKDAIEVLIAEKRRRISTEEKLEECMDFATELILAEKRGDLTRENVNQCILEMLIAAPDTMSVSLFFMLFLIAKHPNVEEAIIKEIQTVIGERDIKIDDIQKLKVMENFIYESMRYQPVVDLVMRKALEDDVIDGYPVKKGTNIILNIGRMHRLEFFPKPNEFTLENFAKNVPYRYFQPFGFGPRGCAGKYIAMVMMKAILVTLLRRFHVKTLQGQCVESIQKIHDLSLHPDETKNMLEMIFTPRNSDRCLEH
Description: Fluorescence-based CYP assay, recombinant CYP19A1h, substrate DBF. On the procedure: (§1) These assays were performed by methods similar to those described by VanAlstine and Hough, Stresser et al., Wulff et al., Henderson et al., and Crespi et al., with minor modifications. All incubations were performed in a final volume of 200 µL of 50 mM potassium phosphate buffer at pH 7.4 containing 1% acetonitrile. CYP inhibitor studies were performed according to the parameters of Table 1. Substrate concentrations were chosen to be near known Km values. As described in the references cited, two different NADPH regenerating systems were used depending on the substrates used (Table 1). […] Samples were pre-incubated at 37°C for the designated times, and the reactions were initiated with the addition of a substrate and enzyme mixtures (Table 1). […] For the assays utilizing the “high” regenerating system, enzyme reactions were terminated at the designated time by the addition of 75 µL of 2N NaOH, followed by a 2 h post-incubation at 37°C. Product formation was then measured at the designated wavelengths (Table 1). For the “low” regenerating system assays, blanks and standards were prepared in 0.1 mL buffer without the regenerating system. For the “high” regenerating system assays, blanks and standards containing 0.1 mL of buffer received 75 µL of 2N NaOH following pre-incubation.

In another data set the target is CYP3A4 (Homo sapiens, UniProt P08684). The data set can be described thus: Fluorescence-based CYP3A4 assay with DBF as substrate. On the procedure:
as §1

Another data set deals with T2, CYP1A2h (Homo sapiens, UniProt P05177).
T2 sequence (P05177 1-516): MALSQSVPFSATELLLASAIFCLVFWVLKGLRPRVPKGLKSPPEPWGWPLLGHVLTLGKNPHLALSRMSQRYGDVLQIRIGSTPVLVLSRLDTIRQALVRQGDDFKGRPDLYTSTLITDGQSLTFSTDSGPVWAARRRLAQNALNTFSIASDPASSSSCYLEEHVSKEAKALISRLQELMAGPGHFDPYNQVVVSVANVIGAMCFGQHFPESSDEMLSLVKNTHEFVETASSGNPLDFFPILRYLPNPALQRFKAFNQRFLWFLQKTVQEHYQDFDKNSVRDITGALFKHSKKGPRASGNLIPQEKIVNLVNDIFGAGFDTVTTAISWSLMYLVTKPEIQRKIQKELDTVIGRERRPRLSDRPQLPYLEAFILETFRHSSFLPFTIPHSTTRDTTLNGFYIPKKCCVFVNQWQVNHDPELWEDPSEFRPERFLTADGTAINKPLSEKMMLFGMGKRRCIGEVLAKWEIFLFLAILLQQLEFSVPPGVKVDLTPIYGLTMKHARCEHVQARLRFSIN
The data set can be described thus: Fluorescence-based CYP assay, recombinant CYP1A2h, substrate CEC. On the procedure:
as §1

This note sets out measurements from paper PMC3646888 (PLoS ONE, 2013).

“Also recorded” adds a separate entry of the source.

As usually defined, the IC50 is the concentration that inhibits the measured activity by half.

Sequence of CYP3A4 (P08684 whole entry): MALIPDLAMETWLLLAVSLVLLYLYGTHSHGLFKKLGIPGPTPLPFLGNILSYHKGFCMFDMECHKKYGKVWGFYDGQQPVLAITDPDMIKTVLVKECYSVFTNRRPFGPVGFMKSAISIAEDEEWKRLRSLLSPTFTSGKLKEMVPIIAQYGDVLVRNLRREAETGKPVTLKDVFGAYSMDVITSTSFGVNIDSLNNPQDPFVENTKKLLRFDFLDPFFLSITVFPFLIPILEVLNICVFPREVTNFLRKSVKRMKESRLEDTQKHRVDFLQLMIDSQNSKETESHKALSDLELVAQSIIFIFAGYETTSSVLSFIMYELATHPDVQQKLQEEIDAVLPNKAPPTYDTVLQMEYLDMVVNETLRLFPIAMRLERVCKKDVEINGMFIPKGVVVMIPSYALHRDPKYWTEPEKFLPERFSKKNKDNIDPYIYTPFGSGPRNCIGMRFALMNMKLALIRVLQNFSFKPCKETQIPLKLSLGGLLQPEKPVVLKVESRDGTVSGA

`Clc1ccccc1C(c1ccccc1)(c1ccccc1)n1cccn1` [TRAM-34, 1-[(2-chlorophenyl)diphenylmethyl]-1H-pyrazole]: the IC50 at CYP19A1h was over 80 µM; on CYP3A4, 3.6 µM; on CYP1A2h, over 80 µM. Also, the “Inhibition of CYP19A1h (in words)” value on CYP19A1h (up to 80 µM) is given as “little to no inhibition; also recorded: no inhibitory effects”. Moreover, the “Inhibition of CYP1A2h (in words)” value on CYP1A2h (up to 80 µM) is “little to no inhibition; also recorded: no inhibitory effects”.
